Experimental data: patent US20240325435A1, “METHODS OF USING COMPOUND OF GLYCOSAMINOGLYCAN” (Holy Stone Healthcare Co., Ltd., priority 2013, published 2024)

What was measured:
Raw 264.7 cells [1] = assay: In vitro anti-inflammatory effect, PGE2 amount in LPS-treated Raw 264.7 cells; assay type: cell-based; conditions: 4 hours
Procedure: Raw 264.7 cells (1×10^6 cells/well, 1000 μL) were incubated in a 24-well culture plate in the presence of 5% CO2 at 37° C. for 24 hours. • 2. […] Cell media were collected, and used for measuring PGE2. • 4. Nunc-Immuno 96-well plates were coated with goat polyclonal anti-mouse IgG secondary antibody. • 5. Aliquots of cell media were added to the immune plate with primary PGE2 monoclonal antibody and a tracer PGE2-acetylcholinesterase overnight at room temperature in the dark. • 6. The next day, the wells were aspirated, washed with 100 μL wash buffer (Cayman Chemical, Ann Arbor, MI, USA) five times. • 7. 200 μL of Elman's reagent was added in each well, and incubated 60-90 minutes at room temperature out of direct light. • 8. Gentle rotating/shaking was used to decrease the time required for color development. • 9. Absorbance was read at 412 nm. • 10. The PGE2 concentration of each sample was calculated from a PGE2 standard curve. • 11. The PGE2 amount percentage was as a function of the PGE2 level of each sample divided by the one of the control group which was LPS-treated, then multiplied this value by 100. • 12. […]
Raw 264.7 cells (1×10^6 cells/well, 1000 μL) were incubated in a 24-well culture plate in the presence of 5% CO2 at 37° C. for 24 hours. • 2. […] Absorbance was read at 412 nm. • 10. The PGE2 concentration of each sample was calculated from a PGE2 standard curve. • 11. […]

[2] = system: Adjuvant-Induced Arthritis (AIA); assay: Adjuvant-Induced Arthritis (rheumatoid arthritis) treatment effect in rats; assay type: in vivo, Sprague-Dawely rats; conditions: intravenous injection at day 14, 10 mg/kg
Procedure: • 1. Thirty of eight weeks male Sprague-Dawely rats (BioLASCO Taiwan Co., Ltd.) were prepared. Rats were divided into 4 groups randomly (n=9 for vehicle and Prednisolone group, n=6 for HA-ADH-Prednisolone and HA group). Every two rats were placed into one cage in rodent animal facility in Institute of Taiwan Animal Technology. • 2. Inject 0.1 mL of CFA (Complete Freund's Adjuvant, 10 mg/mL, Chondrex Inc.) containing 10 mg/mL of heat-killed mycobacterium into subcutaneously at a footpad of right hind limb. • 3. The needle should be inserted just under the skin of the footpad pointing toward the ankle: this maximizes delivery of the adjuvant to the draining popliteal lymph nodes. • 4. Severe and acute inflammation is observed within 30 minutes of injection, peaks within 3 to 4 days, and often persists for 20 to 25 days. • 5. Rat were treated at day 14 after induction of the Adjuvant-Induced Arthritis (AIA) by intravenous injection of Prednisolone or HA-Prednisolone (both 10 mg/kg), or saline as a control. • 6. Rats were sacrificed at day 20 after treatment and tissues were isolated hereafter.
• Paw thickness and Ankle circumference: Paw thickness determined by measuring paw diameter using a caliper, such as Mitsutoyo digimatic caliper. Ankle circumference determined by measuring 2 perpendicular diameters, the latero-lateral diameter (a) and the anteroposterior diameter (b), with a digital caliper and using the following formula: […]

Raw 264.7 cells [3] = assay: In vitro anti-inflammatory effect, nitrite by Griess reaction in LPS-treated Raw 264.7 cells; assay type: cell-based; conditions: 10 μM Budesonide equivalent, 378 μg/ml HA, 4 hours, then 1 μg/mL LPS 24 hours
Procedure: • 1. Raw 264.7 cells were suspended in culture medium without phenol red (Gibco-BRL, Vienna, Austria) and adjusted to 10^6/ml, and treated with 10 μM Budesonide, 378 μg/ml HA and HA-ADH-Budesonide (equal to 10 μM Budesonide). • 2. After treatment with drugs for 4 hours, 1 μg/mL LPS was added into medium for 24 hours. • 3. Cells treated with medium only served as a negative control group and treated with LPS (1 μg/mL) as a positive control group. • 4. The culture supernatants were removed subsequently and the nitric oxide were accumulated for the measurement of iNOS activity by the Griess-reaction. • 5. 100 μl Griess reagent (1% sulfanilamide, 0.1% naphthlethylenediamine dihydrochloride in 2.5% phosphoric acid) was added into 100 μl culture supernatant and the color development was assessed at 550 nm with a ELISA microplate reader (SpectraMax® M2e Multimode Plate Reader, Molecular Devices, USA). • 6. Standard curves were generated with a serial dilution of sodium nitrite dissolved in culture medium which is phenol red free. […] The inflammation index herein is nitrite.

Compound | anti-inflammation effect, change percentage of PGE2 amount (FIG. 8) (Raw 264.7 cells [1]; 100 μM Fexofenadine or equivalent, then 1 μg/mL LPS 24 h) | treatment effect, change percentage of ankle circumference (FIG. 12) [2] | treatment effect, change percentage of paw thickness (FIG. 11) [2] | anti-inflammation effect, change of nitrite concentration (FIG. 6) (Raw 264.7 cells [3]) | anti-inflammation effect, change percentage of PGE2 amount (FIG. 10) (Raw 264.7 cells [1]; 86.7 μM Prednisolone or equivalent, then 1 μg/mL LPS 24 hours)
CC(C)(C(=O)O)c1ccc(C(O)CCCN2CCC(C(O)(c3ccccc3)c3ccccc3)CC2)cc1 (stereo not drawn) [Fexofenadine] | has treatment effect | – | – | – | –
hyaluronic acid [HA] | – | enhance RA symptom | almost the same trend comparing with control group | have treatment effect | –
C[C@]12C=CC(=O)C=C1CC[C@@H]1[C@@H]2[C@@H](O)C[C@@]2(C)[C@H]1CC[C@]2(O)C(=O)CO [Prednisolone] | – | – | showed the treatment effect | – | has treatment effect
